According to US20240159706A1, “MALDI-MS METHOD, PHOTO-SENSITIVE MALDI MATRIX COMPOSITE AND PHOTO-CAGED MALDI MATRIX COMPOUND FOR USE IN SAID METHOD AND RESPECTIVE USES” (SIRIUS FINE CHEMICALS SICHEM GMBH, priority 2021, published 2024):
Where two headings read alike, the source gives them in different places.

Tests used:
[1] = Dissolution of matrix compounds when preparing test solutions (Example 4a); type: physicochemical
Protocol: Conventional MALDI matrix compounds 2,5-dihydroxybenzoic acid (2,5-DHB); 1,5-diaminonaphthalene (1,5-DAN); 3-hydroxycoumarin (3-HC); […] (2,5-DHAP); 2-mercaptobenzothiazole (2-MBT) and dithranol, respectively, were dissolved in acetonitrile/water (1:1 v/v) at a concentration of 5 mg/mL. […] 1 μL of each resulting solution was pipetted onto an ITO glass slide. After droplets had dried in the air, a first optical image (Aperio CS2 Scanner, Leica Biosystems, Wetzlar, Germany) of the whole ITO slides at 0 min. was recorded. The slides were then incubated at about 35° C. and a vacuum between about 3.5×10^−6 mbar (t=0 min.) and about 1.4×10^−7 mbar (t=892 min.) in an ultrafleXtreme™ MALDI TOF mass spectrometer (Bruker Daltonics) equipped with a Smartbeam-II Nd:YAG laser (355 nm) for time periods of 18 min., 80 min. and 892 min., respectively. After each time interval, additional optical images were taken of the slides. For 2,5-dihydroxyacetophenone (2,5-DHAP) a similar test was performed with a diluted solution (2.5 mg/mL). […]

[2] = Solubility tests with Photo-caged MALDI Matrix Compounds in solvents/solvent systems; type: physicochemical; details: for solubility: thermodynamic from solid, read-out: solubility (completely dissolved at 2.5 mg/mL); for solubility in the solvents or solvent systems under review: overall rating from Table 2, Solvents 1-10
Protocol: Photo-caged MALDI Matrix Compounds according to the invention were prepared as described in Example 1 above and tested for solubility in different solvents (including solvent systems). The solvents (including solvent systems) used in this Example 2 are listed here below in Table 1:
Around 1 mg of each Photo-caged MALDI Matrix Compound was weighed into an Eppendorf tube using an analytical balance. The calculated amount of selected solvent was added into the tube to generate a solution at a maximal concentration of 2.5 mg/mL. An ultrasonic bath was used for max. 3 min. to accelerate the dissolving process.
The numbers of the compounds used in this Example 2 refer to the example numbers of Example 1 above. In Table 2 below, the mark “X” in a cell means, that the respective compound was completely dissolved in the respective solvent or solvent system in a concentration of 2.5 mg/mL.

[3] = stated as known; cited from earlier work
[4] = Crystallisation test by spray method; type: physicochemical; details: on ITO object slide, by scanning electron microscopy
Protocol: The Photo-caged MALDI Matrix Compound of Ex. 1.1 according to the invention was prepared as described in Example 1 above and spray-tested for its crystallization properties in a spraying method on (i) an indium tin-oxide (ITO) object slide and (ii) on a sliced sample of porcine brain.
In each case, a solution of the Photo-caged MALDI Matrix Compound of Ex. 1.1 (concentration 2.5 mg/mL in acetonitrile/water v/v 4/1) was sprayed onto the surfaces of (i) an ITO object slide and (ii) on a sliced sample of porcine brain with a MALDI HTX M5 Sprayer™ (by HTX Technologies, LLC, USA).
The operating parameters applied were as follows: Temperature of spraying nozzle: 50° C./flow rate: 0.06 mL/min/speed of spraying nozzle: 1000 mm/min/spraying distance: 40 mm.
The resulting crystals on (i) an ITO object slide and (FIG. 1 to 3) (ii) on a sliced sample of porcine brain (FIG. 4 to 5) where then analyzed by optical scanning (in 20-fold magnification) and by scanning electron microscopy (in 5000-fold and 10000-fold magnification), as shown in FIG. 1 to 5.

[5] = Additional vacuum stability test, compounds sprayed on ITO slides with porcine brain tissue sections (Example 4a); type: physicochemical; details: 21 hrs, about 35° C., vacuum up to about 1.4×10^−7 mbar
Protocol: In a separate experiment, frozen porcine brain tissue was sectioned into 10 μm slices using a Leica CM1950 clinical cryostate (Leica Biosystems, Germany) at a chamber temperature of −15° C. and a head temperature of −10° C. The tissue sections were thaw-mounted onto ITO glass slides and dried for 20 min under vacuum. The ITO glass object slides with tissue sections were then sealed and stored at −80° C. until analysis. Shortly before usage, the slides were taken out from the freezer and thawed at room temperature for 20 min. under vacuum.
Photo-caged MALDI Matrix Compounds of Examples Ex. 1.1 (DMNB-2,5-DHAP), 1.7 (CNB-2,5-DHAP), 1.8 (PMNB-2,5-DHAP) and 1.9 (DMNBC-2,5 DHAP) were dissolved (Ex. 1.1: 2.5 mg/mL in standard solvent according to table 2 above; Ex.: 1.7 and 1.8:2.5 mg/mL in acetonitrile/water 7:3 (v/v)+0.1% trifluoroacetic acid; Ex. 1.9: saturated solution <2.5 mg/mL in acetonitrile/water 8:2 (v/v)+0.1% trifluoroacetic acid) and sprayed onto the ITO slides as prepared above, including to the porcine brain tissue sections thereof (see above) with a HTX M5 sprayer (HTX Technologies, USA), spray parameters: temperature of spray nozzle/tray: 50° C./25° C., Spray nozzle velocity 1000 mm/min; nozzle height: 40 mm. Twenty passes with a flow rate of 60 μL/min and a pressure of 10 psi were sprayed. Optical images of the sprayed slides were then recorded before incubation and after incubation in an ultrafleXtreme™ MALDI TOF mass spectrometer (see above) for 21 hrs at about 35° C. and a vacuum of up to about 1.4×10^−7 mbar.

[6] = Solvent 2: Acetonitrile/water (v/v 90/10)
[7] = Solvent 3: Acetonitrile/water (v/v 90/10) + 0.1% trifluoroacetic acid
[8] = Solvent 4: Acetonitrile/water (v/v 85/15) + 0.1% trifluoroacetic acid
[9] = Solvent 5: Methanol/water (v/v 90/10)
[10] = Solvent 6: Methanol/water (v/v 90/10) + 0.1% trifluoroacetic acid
[11] = Solvent 7: Methanol/water (v/v 90/10) + 50 mM (final conc.) NH4HCO3
[12] = Solvent 8: Methanol/water (v/v 85/15)
[13] = Solvent 9: Methanol/water (v/v 85/15) + 0.1% trifluoroacetic acid
[14] = Solvent 10: Methanol/water (v/v 85/15) + 50 mM (final conc.) NH4HCO3
[15] = organic solvent or mixture, Solvent 1: Acetonitrile
[16] = organic solvent or mixture, Solvent 2: Acetonitrile/water (v/v 90/10)
[17] = organic solvent or mixture, Solvent 3: Acetonitrile/water (v/v 90/10) + 0.1% trifluoroacetic acid
[18] = organic solvent or mixture, Solvent 4: Acetonitrile/water (v/v 85/15) + 0.1% trifluoroacetic acid
[19] = organic solvent or mixture, Solvent 6: Methanol/water (v/v 90/10) + 0.1% trifluoroacetic acid
[20] = organic solvent or mixture, Solvent 5: Methanol/water (v/v 90/10)

| solubility (completely dissolved at 2.5 mg/mL) [2, 9] | solubility (completely dissolved at 2.5 mg/mL) [2, 10] | solubility (completely dissolved at 2.5 mg/mL) [2, 11] | solubility (completely dissolved at 2.5 mg/mL) [2, 12] | solubility (completely dissolved at 2.5 mg/mL) [2, 13] | solubility (completely dissolved at 2.5 mg/mL) [2, 14] | solubility [2, 15] [µg/mL] | solubility [2, 16] [µg/mL] | solubility [2, 17] [µg/mL] | solubility [2, 18] [µg/mL] | solubility in the solvents or solvent systems under review [2] | presence on ITO slides / porcine brain tissue sections after incubation under vacuum [5] | Structure (SMILES) | also measured |
| --- | --- | --- | --- | --- | --- | --- | --- | --- | --- | --- | --- | --- | --- |
|  |  |  |  |  |  |  |  |  |  |  |  | Sc1nc2ccccc2s1 [2-MBT, 2-mercaptobenzothiazole, reference compound] | dissolution at a concentration of 5 mg/mL ([1]; acetonitrile/water (1:1 v/v), 5 mg/mL): not completely dissolved |
| ◯ | ◯ | ◯ | ◯ | ◯ | ◯ | > 2500 |  |  |  |  |  | COc1cc(COc2cc3ccccc3oc2=O)c([N+](=O)[O-])cc1OC [Ex. 1.3, 3-((4,5-Dimethoxy-2-nitrobenzyl)oxy)-2H-chromen-2-one] | solubility (completely dissolved at 2.5 mg/mL) [2, 6]: ◯; solubility (completely dissolved at 2.5 mg/mL) [2, 7]: ◯; solubility (completely dissolved at 2.5 mg/mL) [2, 8]: ◯ |
|  |  |  |  |  |  |  |  |  |  |  |  | CC(=O)c1c(O)cccc1O [2,6-DHAP, 2,6-dihydroxyacetophenone] | sensitivity to vacuum conditions [3]: extremely sensitive to vacuum conditions and volatile |
| ◯ |  | ◯ | ◯ | ◯ | ◯ | > 2500 | > 2500 | > 2500 | > 2500 | very good solubility | best results | COc1cc(COc2ccc(O)c(C(C)=O)c2)c([N+](=O)[O-])cc1OC [Ex. 1.1, 1-(5-((4,5-Dimethoxy-2-nitrobenzyl)oxy)-2-hydroxyphenyl)ethan-1-one] | solubility [2, 19]: > 2500 µg/mL; average size of the resulting crystals [4]: about 1 μm |
| ◯ | ◯ | ◯ | ◯ | ◯ | ◯ |  |  |  |  |  |  | COc1cc(COc2cccc3c2C(=O)c2c(O)cccc2C3)c([N+](=O)[O-])cc1OC [Ex. 1.6, 1-((4,5-Dimethoxy-2-nitrobenzyl)oxy)-8-hydroxyanthracen-9(10H)-one] | solubility (completely dissolved at 2.5 mg/mL) ([2]; Solvent 1: Acetonitrile): ◯; solubility (completely dissolved at 2.5 mg/mL) [2, 6]: ◯; solubility (completely dissolved at 2.5 mg/mL) [2, 7]: ◯; solubility (completely dissolved at 2.5 mg/mL) [2, 8]: ◯ |
| ◯ | ◯ | ◯ | ◯ | ◯ | ◯ | > 2500 | > 2500 | > 2500 | > 2500 | very good solubility |  | COc1cc(COc2cccc(O)c2C(C)=O)c([N+](=O)[O-])cc1OC [Ex. 1.4, 1-(2-((4,5-Dimethoxy-2-nitrobenzyl)oxy)-6-hydroxyphenyl)ethan-1-one] |  |
|  | ◯ | ◯ | ◯ | ◯ | ◯ | > 2500 | > 2500 | > 2500 | > 2500 | very good solubility |  | COc1cc(CSc2nc3ccccc3s2)c([N+](=O)[O-])cc1OC [Ex. 1.5, 2-((4,5-Dimethoxy-2-nitrobenzyl)thio)benzo[d]thiazole] | solubility [2, 20]: > 2500 µg/mL |
|  |  |  |  |  |  |  |  |  |  |  | completely evaporated | CC(=O)c1cc(O)ccc1O [2,5-DHAP, 2,5-dihydroxyacetophenone, reference compound] |  |
|  |  |  |  |  |  | > 2500 | > 2500 | > 2500 | > 2500 | excellent solubility |  | COc1cc(CNc2cccc3c(N)cccc23)c([N+](=O)[O-])cc1OC [Ex. 1.2, N^1-(4,5-dimethoxy-2-nitrobenzyl)naphthalene-1,5-diamine] | solubility ([2]; methanol/water (v/v 85/15) + 50 mM NH4HCO3, organic solvent or mixture, Solvent 10: Methanol/water (v/v 85/15) + 50 mM (final conc.) NH4HCO3): > 2500 µg/mL; solubility ([2]; methanol/water (v/v 90/10) + 50 mM NH4HCO3, organic solvent or mixture, Solvent 7: Methanol/water (v/v 90/10) + 50 mM (final conc.) NH4HCO3): > 2500 µg/mL; solubility [2, 20]: > 2500 µg/mL; solubility [2, 19]: > 2500 µg/mL; solubility ([2]; organic solvent or mixture, Solvent 8: Methanol/water (v/v 85/15)): > 2500 µg/mL; solubility ([2]; organic solvent or mixture, Solvent 9: Methanol/water (v/v 85/15) + 0.1% trifluoroacetic acid): > 2500 µg/mL |
|  |  |  |  |  |  |  |  |  |  |  | best results | COc1cc(COC(=O)Oc2ccc(O)c(C(C)=O)c2)c([N+](=O)[O-])cc1OC [Ex. 1.9, 3-Acetyl-4-hydroxyphenyl (4,5-dimethoxy-2-nitrobenzyl) carbonate] | concentration of saturated solution ([1]; acetonitrile/water 8:2 (v/v)+0.1% trifluoroacetic acid): < 2.5 mg/mL |
